Measurements reported in US20260217708A1, “FUSED BENZAZEPINE DERIVATIVES FOR USE IN THE TREATMENT OF CANCER AND EPILEPSY” (UCB BIOPHARMA SRL, priority 2023, published 2026).
Each block holds one compound with its values, some of them ahead of it.

Legend:
system Xc^− [1] = biological target: T1, system Xc^− (Homo sapiens, UniProt Q9UPY5); assay: [^14C]L-Cystine uptake assay; type: cell-based; set-up: endogenous in cells; host or cells: H4 cells; conditions: H4 cells, sodium-free HEPES buffer, 0.5 μM L-[14C]Cystine and 4.5 μM L-Cystine, 1 hour at 37° C.; read-out: pIC50 [^14C] L-Cystine uptake assay (converted)
T1 sequence (Q9UPY5 1-501): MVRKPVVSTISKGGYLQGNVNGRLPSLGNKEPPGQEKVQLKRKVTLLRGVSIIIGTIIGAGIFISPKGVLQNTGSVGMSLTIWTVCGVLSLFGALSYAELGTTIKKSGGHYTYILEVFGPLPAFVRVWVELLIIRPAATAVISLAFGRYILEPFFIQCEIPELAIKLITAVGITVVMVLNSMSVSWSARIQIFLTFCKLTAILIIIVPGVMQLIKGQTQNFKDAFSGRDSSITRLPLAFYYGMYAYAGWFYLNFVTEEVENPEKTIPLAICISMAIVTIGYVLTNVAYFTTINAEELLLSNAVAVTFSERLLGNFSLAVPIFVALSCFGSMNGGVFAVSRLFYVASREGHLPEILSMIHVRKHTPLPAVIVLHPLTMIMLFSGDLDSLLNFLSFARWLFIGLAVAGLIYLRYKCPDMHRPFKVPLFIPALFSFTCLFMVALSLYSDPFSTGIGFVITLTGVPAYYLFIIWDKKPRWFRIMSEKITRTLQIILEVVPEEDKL
T1 sequence (P08195 1-529 partner): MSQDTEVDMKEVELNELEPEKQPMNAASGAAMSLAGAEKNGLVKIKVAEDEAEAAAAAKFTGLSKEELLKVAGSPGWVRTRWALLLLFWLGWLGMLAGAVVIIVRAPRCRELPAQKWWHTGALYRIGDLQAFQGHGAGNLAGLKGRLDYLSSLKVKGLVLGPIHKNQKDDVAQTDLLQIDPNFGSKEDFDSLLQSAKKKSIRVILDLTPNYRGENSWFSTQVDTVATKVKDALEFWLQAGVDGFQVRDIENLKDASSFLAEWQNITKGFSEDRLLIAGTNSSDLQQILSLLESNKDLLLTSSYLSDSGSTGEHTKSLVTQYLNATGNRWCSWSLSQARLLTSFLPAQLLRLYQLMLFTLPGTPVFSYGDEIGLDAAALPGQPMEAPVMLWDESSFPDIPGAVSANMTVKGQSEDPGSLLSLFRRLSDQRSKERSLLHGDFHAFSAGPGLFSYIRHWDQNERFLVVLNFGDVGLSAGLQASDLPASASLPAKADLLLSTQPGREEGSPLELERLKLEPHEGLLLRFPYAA
Method in brief: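 Compound effect is given as pIC50, taken between controls of 1% DMSO and 50 μM Erastin. Human H4 cells were pretreated 15 min with compound in sodium-free buffer, then took up 0.5 μM [14C]cystine with 4.5 μM cold cystine for 1 hour at 37° C, read by scintillation proximity counting.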

system Xc^− [2] = biological target: T1, system Xc^−; assay: Cystine-induced glutamate release assay; type: cell-based; set-up: endogenous in cells; host or cells: H4 cells; conditions: H4 cells, sodium-free HEPES buffer, 50 μM L-Cystine, 2 hours, Amplex Red glutamate readout; for IC50: read-out: pIC50 Cystine-induced glutamate release assay (converted)
Method in brief: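 IC50 (reported as pIC50) normalized to DMSO 1% and Erastin 50 μM controls, from Amplex Red fluorescence of glutamate exported into supernatant. H4 cells were washed into sodium-free buffer to exclude EAAT transport, then given compound with 50 μM L-cystine for 2 h in the incubator.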

- IC50 (system Xc^− [1]): < 15.8 nM
- pIC50 Cystine-induced glutamate release assay (system Xc^− [2]): C (about 7.40 < pIC50 ≤ about 7.80)
SMILES: COc1nc(OC(F)F)cc2c1-c1cccnc1C(C)C(=O)N2CC(=O)Nc1ccc(C(F)F)cc1 (single isomer, unassigned) [#330, 2-[5-(difluoromethoxy)-3-methoxy-10-methyl-9-oxo-4,8,12-triazatricyclo[9.4.0.0^2,7]pentadeca-1(15),2(7),3,5,11,13-hexaen-8-yl]-N-[4-(difluoromethyl)phenyl]acetamide]

- IC50 (system Xc^− [1]): < 15.8 nM
- IC50 (system Xc^− [2]): 15.8 to 39.8 nM
SMILES: CC1C(=O)N(CC(=O)Nc2ccc(C(F)F)cc2)c2cc(Cl)cc(F)c2-c2cccnc21 (single isomer, unassigned) [#332, 2-[9-chloro-11-fluoro-5-methyl-6-oxo-5H-pyrido[2,3-d][1]benzazepin-7-yl]-N-[4-(difluoromethyl)phenyl]acetamide]

- IC50 (system Xc^− [1]): < 15.8 nM
- IC50 (system Xc^− [2]): < 15.8 nM
SMILES: COc1cc2c(c(OC)n1)-c1cccnc1C(C)C(=O)N2CC(=O)Nc1ccc(C(F)F)cc1 (single isomer, unassigned) [#335, N-[4-(difluoromethyl)phenyl]-2-[3,5-dimethoxy-10-methyl-9-oxo-4,8,12-triazatricyclo[9.4.0.0^2,7]pentadeca-1(15),2(7),3,5,11,13-hexaen-8-yl]acetamide]

- IC50 (system Xc^− [1]): 15.8 to 39.8 nM
- IC50 (system Xc^− [2]): 15.8 to 39.8 nM
SMILES: Cc1cc2c(c(=O)o1)-c1ccccc1C(C)C(=O)N2CC(=O)Nc1ccc(C(F)F)cc1 (single isomer, unassigned) [#359, N-[4-(difluoromethyl)phenyl]-2-[3,7-dimethyl-1,6-dioxo-7H-pyrano[4,3-d][3]benzazepin-5-yl]acetamide]

- IC50 (system Xc^− [1]): 39.8 to 100 nM
- IC50 (system Xc^− [2]): 15.8 to 39.8 nM
SMILES: Cc1cc2c(c(=O)o1)-c1cccnc1C(C)C(=O)N2CC(=O)Nc1ccc(C(F)F)cc1 (single isomer, unassigned) [#360, N-[4-(difluoromethyl)phenyl]-2-[5,10-dimethyl-3,9-dioxo-4-oxa-8,12-diazatricyclo[9.4.0.0^2,7]pentadeca-1(15),2(7),5,11,13-pentaen-8-yl]acetamide]

- IC50 (system Xc^− [1]): 15.8 to 39.8 nM
- IC50 (system Xc^− [2]): < 15.8 nM
SMILES: CC1C(=O)N(CC(=O)Nc2ccc(C(F)F)cc2)c2cc(C3(F)CC3)oc(=O)c2-c2cccnc21 (single isomer, unassigned) [#365, N-[4-(difluoromethyl)phenyl]-2-[5-(1-fluorocyclopropyl)-10-methyl-3,9-dioxo-4-oxa-8,12-diazatricyclo[9.4.0.0^2,7]pentadeca-1(15),2(7),5,11,13-pentaen-8-yl]acetamide]

More lines, now with the values behind:

SMILES: COc1nc(OC(F)F)cc2c1-c1cccnc1C(C)C(=O)N2CC(=O)Nc1ccc(C(F)F)cc1 (single isomer, unassigned) [#329, 2-[5-(difluoromethoxy)-3-methoxy-10-methyl-9-oxo-4,8,12-triazatricyclo[9.4.0.0^2,7]pentadeca-1(15),2(7),3,5,11,13-hexaen-8-yl]-N-[4-(difluoromethyl)phenyl]acetamide]
- IC50 (system Xc^− [1]): 15.8 to 39.8 nM
- IC50 (system Xc^− [2]): 15.8 to 39.8 nM

SMILES: CC1C(=O)N(CC(=O)Nc2ccc(C(F)(F)F)nc2)c2cc(Cl)cc(F)c2-c2cccnc21 (single isomer, unassigned) [#331, 2-[9-chloro-11-fluoro-5-methyl-6-oxo-5H-pyrido[2,3-d][1]benzazepin-7-yl]-N-[6-(trifluoromethyl)-3-pyridyl]acetamide]
- IC50 (system Xc^− [1]): 15.8 to 39.8 nM
- IC50 (system Xc^− [2]): 39.8 to 100 nM

SMILES: CC1C(=O)N(CC(=O)Nc2ccc(C(F)(F)F)nc2)c2cc(N3CC(F)(F)C3)ccc2-c2cccnc21 (single isomer, unassigned) [#333, 2-[9-(3,3-difluoroazetidin-1-yl)-5-methyl-6-oxo-5H-pyrido[2,3-d][1]benzazepin-7-yl]-N-[6-(trifluoromethyl)-3-pyridyl]acetamide]
- IC50 (system Xc^− [1]): 15.8 to 39.8 nM
- IC50 (system Xc^− [2]): 39.8 to 100 nM

SMILES: CC1C(=O)N(CC(=O)Nc2ccc(C(F)F)cc2)c2cc(N3CC(F)(F)C3)ccc2-c2cccnc21 (single isomer, unassigned) [#334, 2-[9-(3,3-difluoroazetidin-1-yl)-5-methyl-6-oxo-5H-pyrido[2,3-d][1]benzazepin-7-yl]-N-[4-(difluoromethyl)phenyl]acetamide]
- IC50 (system Xc^− [1]): < 15.8 nM
- IC50 (system Xc^− [2]): < 15.8 nM

SMILES: COc1cc2c(c(OC)n1)-c1cccnc1C(C)C(=O)N2CC(=O)Nc1ccc(C(F)(F)F)cn1 (single isomer, unassigned) [#336, 2-[3,5-dimethoxy-10-methyl-9-oxo-4,8,12-triazatricyclo[9.4.0.0^2,7]pentadeca-1(15),2(7),3,5,11,13-hexaen-8-yl]-N-[5-(trifluoromethyl)-2-pyridyl]acetamide]
- IC50 (system Xc^− [1]): 39.8 to 100 nM
- IC50 (system Xc^− [2]): 15.8 to 39.8 nM

SMILES: COc1cc2c(c(OC)n1)-c1cccnc1C(C)C(=O)N2CC(=O)Nc1ccc(C(F)(F)F)nc1 (single isomer, unassigned) [#337, 2-[3,5-dimethoxy-10-methyl-9-oxo-4,8,12-triazatricyclo[9.4.0.0^2,7]pentadeca-1(15),2(7),3,5,11,13-hexaen-8-yl]-N-[6-(trifluoromethyl)-3-pyridyl]acetamide]
- IC50 (system Xc^− [1]): 15.8 to 39.8 nM
- IC50 (system Xc^− [2]): 15.8 to 39.8 nM

SMILES: CC1C(=O)N(CC(=O)Nc2ccc(Cl)c(F)c2)c2cc(C(F)F)ncc2-c2cccnc21 (single isomer, unassigned) [#342, N-(4-chloro-3-fluoro-phenyl)-2-[5-(difluoromethyl)-10-methyl-9-oxo-4,8,12-triazatricyclo[9.4.0.0^2,7]pentadeca-1(15),2,4,6,11,13-hexaen-8-yl]acetamide]
- IC50 (system Xc^− [1]): < 15.8 nM
- IC50 (system Xc^− [2]): < 15.8 nM

SMILES: CC1C(=O)N(CC(=O)Nc2ccc(Cl)c(F)c2)c2cc(C(F)F)ncc2-c2cc(F)cnc21 (single isomer, unassigned) [#348, N-(4-chloro-3-fluoro-phenyl)-2-[5-(difluoromethyl)-14-fluoro-10-methyl-9-oxo-4,8,12-triazatricyclo[9.4.0.0^2,7]pentadeca-1(15),2,4,6,11,13-hexaen-8-yl]acetamide]
- IC50 (system Xc^− [1]): < 15.8 nM
- IC50 (system Xc^− [2]): 15.8 to 39.8 nM

SMILES: CC1C(=O)N(CC(=O)Nc2ccc(C(F)F)cc2)c2cc(C(F)F)c(=O)n(C)c2-c2ccccc21 (single isomer, unassigned) [#357, 2-[3-(difluoromethyl)-1,7-dimethyl-2,6-dioxo-7H-pyrido[3,2-d][3]benzazepin-5-yl]-N-[4-(difluoromethyl)phenyl]acetamide]
- IC50 (system Xc^− [1]): 15.8 to 39.8 nM
- IC50 (system Xc^− [2]): 15.8 to 39.8 nM

SMILES: Cc1cc2c(c(=O)n1C)-c1ccnn1C(C)C(=O)N2CC(=O)Nc1ccc(C(F)F)cc1 (single isomer, unassigned) [#358, N-[4-(difluoromethyl)phenyl]-2-[7,12,13-trimethyl-8,14-dioxo-5,6,9,13-tetrazatricyclo[8.4.0.0^2,6]tetradeca-1(10),2,4,11-tetraen-9-yl]acetamide]
- IC50 (system Xc^− [1]): 100 to 501 nM
- IC50 (system Xc^− [2]): 15.8 to 39.8 nM

SMILES: CC1C(=O)N(CC(=O)Nc2ccc(Cl)c(F)c2)c2ccn(C)c(=O)c2-c2ccc(F)cc21 (single isomer, unassigned) [#364, N-(4-chloro-3-fluoro-phenyl)-2-[-9-fluoro-2,7-dimethyl-1,6-dioxo-7H-pyrido[4,3-d][3]benzazepin-5-yl]acetamide]
- IC50 (system Xc^− [1]): < 15.8 nM
- IC50 (system Xc^− [2]): 15.8 to 39.8 nM

SMILES: Cc1cc2c(c(=O)n1C)-c1cncnc1C(C)C(=O)N2CC(=O)Nc1ccc(C(F)F)cc1 (single isomer, unassigned) [#367, N-[4-(difluoromethyl)phenyl]-2-[8,13,14-trimethyl-9,15-dioxo-4,6,10,14-tetrazatricyclo[9.4.0.0^2,7]pentadeca-1(11),2(7),3,5,12-pentaen-10-yl]acetamide]
- IC50 (system Xc^− [1]): 15.8 to 39.8 nM
- IC50 (system Xc^− [2]): 15.8 to 39.8 nM
